According to US8785424B2, “ngCycloartanone derivatives with anticancer activity” (Pierre Fabre Medicament, priority 2009, dated 2014):
Where a name gives a salt, the structure may show the parent alone.

System: proteasome
Experiment: Cellular proteasome inhibition test: accumulation of 4Ub-Luc reporter (luciferase activity) in DLD-1 4Ub-Luc cell line
Assay type: cell-based, human
Details: DLD-1 4Ub-Luc cells; for relative induction factor (IF % luminescence) versus epoxomicin: 8 hours, epoxomicin = 100%
Outline: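 DLD-1 4Ub-Luc human colon cancer cells, which express a 4-ubiquitin–luciferase fusion that the proteasome degrades, were seeded into white 96-well plates (100 μl of 1·10^5 c/ml) and left to adhere for 24 hours. They were then treated, with 0.1% DMSO as solvent control and 10^−7 M epoxomicin as reference. Cells were rinsed with PBS, lysed in passive lysis buffer and frozen at −20° C. Luciferase activity was measured with a Promega kit at 20-25° C. Each induction factor versus solvent was expressed relative to epoxomicin, set at 100%.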

[1] = concentration tested 5 · 10^−6 M

| Compound | relative induction factor (IF % luminescence) versus epoxomicin [1] | relative induction factor (IF % luminescence) versus epoxomicin (concentration tested 10^−5 M) | relative induction factor (IF % luminescence) versus epoxomicin (concentration tested 10^−6 M) | relative induction factor (IF % luminescence) versus epoxomicin (concentration tested 5 · 10^−7 M) | induction factor of the reference (IF % luminescence) (reference molecule at 10^−7 M, set to IF=100%) |
| --- | --- | --- | --- | --- | --- |
| CC(=O)O[C@H]1C[C@@]2(C)[C@@H]3CC[C@H]4[C@H](C)C(=O)C=C[C@@]45C[C@@]35CC[C@]2(C)[C@H]1[C@H](C)[C@@H](OC(C)=O)C12OCC(C)C1Cc1ccc(O)cc1O2 (some centres unmarked) [Compound 88, Neoboutomellerone Resorcinol Derivative] | 47% | 78% | 1% |  |  |
| C=C(C(=O)[C@H](OC(C)=O)[C@@H](C)[C@H]1[C@@H](OC(C)=O)C[C@@]2(C)C3CCC4[C@H](C)C(=O)C=C[C@@]45C[C@@]35CC[C@]12C)[C@@H](C)COP(=O)(O)O (some centres unmarked) [Compound 89, 26-phosphate-neoboutomellerone] | 3% | 40% | 1% |  |  |
| C=C(C(=O)[C@H](OC(C)=O)[C@@H](C)[C@H]1[C@@H](OC(C)=O)C[C@@]2(C)[C@@H]3CC[C@H]4[C@H](C)C(=O)C=C[C@@]45C[C@@]35CC[C@]12C)[C@@H](C)COP(=O)(O)O [Compound 90, 26-phosphate-neoboutomellerone N-methyl Glutamine Salt] | 4% | 51% | 1% |  |  |
| C=C(C(=O)[C@H](OC(C)=O)[C@@H](C)[C@H]1[C@@H](OC(C)=O)C[C@@]2(C)C3CCC4[C@H](C)C(=O)C=C[C@@]45C[C@@]35CC[C@]12C)[C@@H](C)COP(=O)(OCC)OCC (some centres unmarked) [Compound 92, 26-(diethylphosphate)-neoboutomellerone] | 16% | 2% | 43% | 3% |  |
| CC[C@H](C)[C@H](NC(=O)[C@H]([C@@H](C)CC)N(C)C(C)=O)C(=O)N[C@H](C(=O)N[C@@H](CC(C)C)C(=O)[C@@]1(C)CO1)[C@@H](C)O [epoxomicin, reference compound] |  |  |  |  | 100% |
